Values quoted from earlier work, collected in patent US10302625B2, “Peripheral measure of central brain inflammation, markers therefor and uses thereof” (CENTRE FOR ADDICTION AND MENTAL HEALTH, priority 2015, dated 2019).

Target: T1, TSPO (Sus scrofa, UniProt Q6UN27)
T1 sequence (Q6UN27 1-169): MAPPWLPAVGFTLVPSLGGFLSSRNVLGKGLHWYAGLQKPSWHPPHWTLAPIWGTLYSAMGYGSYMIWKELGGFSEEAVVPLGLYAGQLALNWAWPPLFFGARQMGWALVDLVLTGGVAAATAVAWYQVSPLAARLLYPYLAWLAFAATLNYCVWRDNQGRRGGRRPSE
Settings: literature ref 19

## CC(=O)N(Cc1ccccc1OCC[18F])c1cnccc1Oc1ccccc1 [[18F]FEPPA]
  affinity for TSPO: high, selective affinity for TSPO
